Key:
Format in all cases: functional
M14 = experiment: Growth inhibition of human M14 cells assessed as cell growth at 10^-4 M incubated for 48 hrs by sulforhodamine B assay relative to control; conditions: M14, 48 h, read-out: Activity
NCI-H522 = experiment: Growth inhibition of human NCI-H522 cells assessed as cell growth at 10^-4 M incubated for 48 hrs by sulforhodamine B assay relative to control; conditions: NCI-H522, 48 h, read-out: Activity
Hs-578T = experiment: Growth inhibition of human Hs 578T cells assessed as cell growth at 10^-4 M incubated for 48 hrs by sulforhodamine B assay relative to control; conditions: read-out: Activity

Compound | growth at 100 µM (M14) | growth at 100 µM (NCI-H522) | growth at 100 µM (Hs-578T)
CCS/C(Nc1ccccc1)=C(\C#N)C(=O)N/N=C\c1ccc(Cl)cc1Cl | -3% |  | 
CCS/C(Nc1ccccc1)=C(\C#N)C(=O)Nc1ccc(OC)cc1 |  | -11% | 16%
